Data on 28 compounds can be found in patent US10125116B2, “Compounds and methods for treating mammalian gastrointestinal microbial infections” (Brandeis University, priority 2009, dated 2018).

Like-named read-outs stand apart in the source and are kept apart here.

Data set [1] has as its system T. gondii-CpIMPDH. In words: T. gondii-CpIMPDH fluorescence growth assay. In kind it is cell-based, Toxoplasma gondii.
Data set [2] deals with HCT-8 cells. Description: fluorescent HCT-8 host cell growth assay. In kind it is cell-based, human. The text has this: The differentiation of selective antiparasitic effects from those that are a secondary consequence of a host cell effect is a critical issue in drug discovery for intracellular parasites. Cytotoxicity assays commonly reflect plasma membrane integrity, and are a crude measure of host cell effects—it is conceivable that more subtle perturbations of host cell metabolism can have an adverse effect on parasite proliferation. Therefore we sought to develop a simple and inexpensive assay of host cell growth. The human ileocecal adenocarcinoma epithelial cell line, HCT-8, which is commonly used to maintain C. parvum infection in tissue culture, was engineered to constitutively express a green fluorescent protein (GFP). Growth of this cell line was monitored daily using a fluorescent plate reader. […] These experiments validate the use of the fluorescent HCT-8 cell growth assay.
HCT-8 cells were transfected with the pmaxGFP plasmid (Amaxa) using Lipofectamine (Invitrogen) following the manufactures instruction. Fluorescent lines were then selected and cloned using FACS. Confluent monolayers of pmaxGFP expressing cells were harvested from T75 flasks and passed through a 40 μm cell strainer. Cells were then seeded at 4000 cells per well in a volume of 200 μL into black, optical quality, thin bottom, 96-well plates (DB Falcon). All test compounds were diluted in DMSO to prepare a 200× working stock for each dilution. Appropriate wells were spiked with 1 μl such that the final concentration of DMSO was 0.5%. The fluorescence was read daily with a SpectraMax M22/M2e (Molecular Devices) plate reader (Ex 485, Em 530) for 6-7 days. The percent inhibition was calculated on a day within the exponential phase of growth.

The target of data set [3] is CpIMPDH, HpIMPDH, BbIMPDH, SpIMPDH, EcIMPDH and TfIMPDH.
Data set [4] has as its system wild-type T. gondii. Description: wild-type T. gondii fluorescence growth assay. The class given is cell-based. The note with it: Toxoplasma gondii.
For data set [5], the system named is T. gondii-ΔHXGPRT. In words: T. gondii-ΔHXGPRT fluorescence growth assay. The class given is cell-based. Conditions: Toxoplasma gondii, read-out: EC50 T. gondii-ΔHXGPRT growth.
The test system of data set [6] is primary human, mouse, rat, and dog lymphocytes. The note with it: cited from earlier work.
Where [7] appears, read: read-out: intrinsic Ki (adjusted for competition from the mobile flap), range over IMPDHs.

In turn, `CC(Oc1ccnc2ccccc12)c1cn(-c2ccc(C#N)c(Cl)c2)nn1` (centres unmarked) returned a melting point of 194 to 196 °C.
`C[C@@H](Oc1ccnc2ccccc12)c1cn(-c2ccc(C#N)c(Cl)c2)nn1` gave a melting point of 176 to 178 °C.
Same read-out and setting: the result for `C[C@H](Oc1ccnc2ccccc12)c1cn(-c2ccc(C#N)c(Cl)c2)nn1` reads 176 to 178 °C.
Consider `CC(Oc1ccc(Cl)c2ccccc12)c1cn(-c2ccc(Cl)cc2)nn1` (centres unmarked) [A82], for which the “selectivity for T. gondii-CpIMPDH parasite over wild-type T. gondii” value in data set [1] is listed as “little selectivity”. For the same compound, the “host cell (HCT-8) growth effect, in words” value (“host cell” below) in data set [2] is “do not inhibit host cell growth”.
For `CC(Oc1ccnc2ccccc12)c1cn(-c2ccc(Cl)c(Cl)c2)nn1` (centres unmarked) [A90], in data set [1], the “selectivity for T. gondii-CpIMPDH parasite over wild-type T. gondii” value is reported as “little selectivity”. Also, the “host cell” value in data set [2] was “do not inhibit host cell growth”.
The corresponding values for `C[C@@H](Oc1ccnc2ccccc12)c1cn(-c2ccc(Cl)c(Cl)c2)nn1` [A105] are “little selectivity” and “do not inhibit host cell growth”.
For `C[C@@H](Oc1cc[n+]([O-])c2ccccc12)c1cn(-c2ccc(Cl)cc2)nn1` [A110], in data set [2], the “host cell” value is given as “negligible effects on host cell growth”.
For the compound `Nc1ncnc2c1ncn2[C@@H]1O[C@H](COP(=O)(O)OP(=O)(O)O)[C@@H](O)[C@H]1O` [ADP], in data set [3] (setting [7]), the Ki was 200 to 9000 µM.
In turn, `CC(Oc1cccc2ccccc12)c1cn(-c2ccc(Cl)cc2)nn1` (centres unmarked) [Compound 1, 1-(4-chlorophenyl)-4-(1-(naphthalene-1-yloxy)ethyl)-1H-1,2,3-triazole] returned a melting point of 98 to 100 °C.
Turning to `CC(Oc1ccnc2ccccc12)c1cn(-c2ccc(Cl)cc2)nn1` (centres unmarked) [Compound 13, 4-(1-(1-(4-chlorophenyl)-1H-1,2,3-triazol-4-yl)ethoxy)quinoline], the melting point was in the range of 128 to 130 °C.
Still for that read-out and setting: under `CC(Oc1ccnc2ccccc12)c1cn(-c2ccc(Cl)c(Cl)c2)nn1` (centres unmarked) [Compound 14, 4-(1-(1-(3,4-dichlorophenyl)-1H-1,2,3-triazol-4-yl)ethoxy)quinoline] stands 62 to 64 °C.
As for `CC(Oc1ccnc2ccccc12)c1cn(-c2ccc(C#N)cc2)nn1` (centres unmarked) [Compound 15, 4-(4-(1-(quinolin-4-yloxy)ethyl)-1H-1,2,3-triazol-1-yl)benzonitrile], the melting point lay within 176 to 178 °C.
`Clc1ccc(-n2cc(COc3ccnc4ccccc34)nn2)cc1` [Compound 17, 4-((1-(4-chlorophenyl)-1H-1,2,3-triazol-4-yl)methoxy)quinoline] yielded a melting point of 230 to 232 °C.
Compound `C[C@@H](Oc1cccc2ncccc12)c1cn(-c2ccc(Cl)cc2)nn1` [Compound 21, (R)-5-(1-(1-(4-chlorophenyl)-1H-1,2,3-triazol-4-yl)ethoxy)quinoline] displayed a melting point of 94 to 96 °C.
`CC(Oc1cccc2c1ccc[n+]2[O-])c1cn(-c2ccc(Cl)cc2)nn1` (centres unmarked) [Compound 25, 5-(1-(1-(4-chlorophenyl)-1H-1,2,3-triazol-4-yl)ethoxy)quinoline 1-oxide] registered a melting point of 165 to 167 °C.
The same measure, in the same setting: the result for `CC(Oc1cc[n+]([O-])c2ccccc12)c1cn(-c2ccc(Cl)c(Cl)c2)nn1` (centres unmarked) [Compound 26, 4-(1-(1-(3,4-dichlorophenyl)-1H-1,2,3-triazol-4-yl)ethoxy)quinoline 1-oxide] reads 216 to 218 °C.
Same read-out and setting: under `C[C@@H](Oc1ccnc2ccccc12)c1cn(-c2ccc(Cl)c(Cl)c2)nn1` [Compound 28, (R)-4-(1-(1-(3,4-dichlorophenyl)-1H-1,2,3-triazol-4-yl)ethoxy)quinoline] stands 62 to 64 °C.
Compound `C[C@H](Oc1ccnc2ccccc12)c1cn(-c2ccc(Cl)c(Cl)c2)nn1` [Compound 30, (S)-4-(1-(1-(3,4-dichlorophenyl)-1H-1,2,3-triazol-4-yl)ethoxy)quinoline] yielded a melting point of 64 to 66 °C.
Regarding `C[C@@H](Oc1cccc2c1ccc[n+]2[O-])c1cn(-c2ccc(Cl)cc2)nn1` [Compound 32, (R)-5-(1-(1-(4-chlorophenyl)-1H-1,2,3-triazol-4-yl)ethoxy)quinoline 1-oxide], the melting point fell in the range of 184 to 186 °C.
Compound `CC(Oc1cccc2ccccc12)C(=O)Nc1ccc(Cl)cc1` (centres unmarked) [Compound 93, N-(4-chlorophenyl)-2-(1-naphthalenyloxy)propanamide] yielded a melting point of 146 to 148 °C.
Compound `O=C(Nc1ccc(Cl)cc1)C(Oc1cccc2ccccc12)c1ccccc1` (stereo not drawn) [Compound 102, N-(4-chlorophenyl)-α-(1-naphthalenyloxy)benzeneacetamide] gave a melting point of 176 to 178 °C.
In the case of `CC(Oc1ccnc2ccccc12)C(=O)Nc1ccc(Cl)cc1` (centres unmarked) [Compound 114, N-(4-chlorophenyl)-2-[[4-quinolinyl]oxy]propanamide], the melting point was 170 to 172 °C.
`CC(C)C(Oc1cccc2ccccc12)C(=O)Nc1ccc(Cl)cc1` (centres unmarked) [Compound 116, N-(4-chlorophenyl)-3-methyl-2-(1-naphthalenyloxy)butanamide] yielded a melting point of 150 to 152 °C.
Compound `O=C(Nc1ccc(Cl)cc1)C(Oc1cccc2ccccc12)C1CC1` (centres unmarked) [Compound 119, N-(4-chlorophenyl)-2-cyclopropyl-2-(1-naphthalenyloxy)acetamide] registered a melting point of 204 to 206 °C.
As for `COc1c(C)c2c(c(O)c1C/C=C(\C)CCC(=O)O)C(=O)OC2` [MPA, mycophenolic acid], the EC50 in data set [1] (Toxoplasma gondii, read-out: EC50 T. gondii-CpIMPDH growth) is over 65 µM; in data set [4] (media with xanthine (0.33 mM), read-out: EC50 wild-type T. gondii growth, xanthine supplemented) it was at least 78 µM; in data set [4] (read-out: EC50 wild-type T. gondii growth) it was 2.6 µM; in data set [5], 0.29 µM.
On to `CCCC(=O)[O-].[Na+]` [Sodium butyrate, reference compound], for which the “host cell” value in data set [2] (human) is reported as “inhibit HCT-8 growth in a dose-dependent manner”.
Turning to `NC(=O)c1csc([C@@H]2O[C@H](CO)[C@@H](O)[C@H]2O)n1` [Tiazofurin, tiazofurin], the Ki was in the range of 1000 to 69000 µM in data set [3] (read-out: Ki (observed), range over prokaryotic IMPDHs) and 300 to 700 µM in data set [3] (setting [7]).
Turning to `COc1cc(NC(=O)Nc2cccc(CNC(=O)O[C@H]3CCOC3)c2)ccc1-c1cnco1` [merimepodib], the “concentration inhibiting lymphocyte proliferation” value in data set [6] is about 100 nM.

As a reminder, the melting point is the temperature, or range, at which the solid turns liquid. As a reminder, the Ki is the equilibrium dissociation constant of an inhibitor or competing ligand from its target. The term EC50 denotes the concentration at which the effect is half-maximal.
